Values of other authors, collected in patent US11919851B2, “Method for producing polyol-based esters of optionally acylated hydroxycarboxylic acids” (IOI Oleo GmbH, priority 2019, dated 2024).

Settings: free acid and its salts; prior art statement

CC(O)CC(=O)O (stereo not shown) [3-hydroxybutyric acid]
adverse effects on oral administration: can cause severe vomiting and nausea
